# What was measured:
# Assay type in all cases: functional
# Candida albicans [1] = test: In vivo antifungal activity against Candida albicans TA infected in CDF-1 mouse dosed orally assessed as survival of mouse; conditions: po
# Candida albicans [2] = test: Antifungal activity against Candida albicans TA
# Candida albicans [3] = test: Antifungal activity against Candida albicans assessed as inhibition zone at 125 ug/ml by disk diffusion method; conditions: read-out: IZ
# Aspergillus fumigatus = test: Antifungal activity against Aspergillus fumigatus NCIM 902 assessed as inhibition zone at 50 ug/ml incubated for 3 to 4 days by disk diffusion method; conditions: read-out: IZ
# Candida albicans [4] = test: Antifungal activity against Candida albicans NCCS 3471 assessed as inhibition zone at 50 ug/ml incubated for 3 to 4 days by disk diffusion method; conditions: read-out: IZ
# Candida albicans [5] = test: Antifungal activity against Candida albicans assessed as reduction in fungal cell growth incubated for 48 hrs by broth microdilution susceptibility method
# Aspergillus niger [6] = test: Antifungal activity against Aspergillus niger assessed as reduction in fungal cell growth incubated for 48 hrs by broth microdilution susceptibility method
# Aspergillus niger [7] = test: Antifungal activity against Aspergillus niger assessed as inhibition zone at 250 ug/ml; conditions: read-out: IZ
# Candida albicans [8] = test: Antifungal activity against Candida albicans assessed as inhibition zone at 250 ug/ml; conditions: read-out: IZ
smiles,measurement,setting,value
C[C@@H](n1cnnn1)[C@](O)(Cn1cncn1)c1ccc(F)cc1,ED50,Candida albicans [1],0.18 to 1.54 mg/kg
same,MIC,Candida albicans [2],12.5 to 100 µg/mL
COc1ccc(/N=C/c2cc3cc(-c4nc5ccccc5[nH]4)ccc3n3nnnc23)cc1,zone of inhibition at 125 µg/mL,Candida albicans [3],7 to 12 mm
O=C(O)c1cccc(/N=C/c2cc3cc(-c4nc5ccccc5[nH]4)ccc3n3nnnc23)c1,zone of inhibition at 125 µg/mL,Candida albicans [3],7 to 12 mm
O=[N+]([O-])c1ccc(-n2nnnc2-c2cccnc2)cc1,zone of inhibition at 50 µg/mL,Aspergillus fumigatus,10 to 19 mm
same,zone of inhibition at 50 µg/mL,Candida albicans [4],10 to 19 mm
O=[N+]([O-])c1ccc(/N=C/c2cc3cc(-c4nc5ccccc5[nH]4)ccc3n3nnnc23)cc1,zone of inhibition at 125 µg/mL,Candida albicans [3],7 to 12 mm
Clc1ccc(-c2nn[se]c2-n2nnc(-c3ccccc3Cl)n2)cc1,MIC,Candida albicans [5],6.25 µg/mL
same,MIC,Aspergillus niger [6],6.25 µg/mL
c1ccc(-n2nnnc2-c2cccnc2)cc1,zone of inhibition at 50 µg/mL,Aspergillus fumigatus,10 to 19 mm
same,zone of inhibition at 50 µg/mL,Candida albicans [4],10 to 19 mm
C[C@@H](n1ncnn1)[C@](O)(Cn1cncn1)c1ccc(F)cc1F,MIC,Candida albicans [2],100 µg/mL
C[C@@H](n1cnnn1)[C@](O)(Cn1cncn1)c1ccc(Cl)cc1,ED50,Candida albicans [1],0.18 to 1.54 mg/kg
same,MIC,Candida albicans [2],12.5 to 100 µg/mL
COc1ccc(-c2nn[se]c2-n2nnc(-c3ccccc3Cl)n2)cc1,MIC,Candida albicans [5],100 to 400 µg/mL
same,MIC,Aspergillus niger [6],100 to 400 µg/mL
O=[N+]([O-])c1ccccc1-n1nnnc1-c1cccnc1,zone of inhibition at 50 µg/mL,Aspergillus fumigatus,10 to 19 mm
same,zone of inhibition at 50 µg/mL,Candida albicans [4],10 to 19 mm
COc1ccc(-c2nn[se]c2-n2nnc(-c3ccc(C)cc3)n2)cc1,MIC,Candida albicans [5],100 to 400 µg/mL
same,MIC,Aspergillus niger [6],100 to 400 µg/mL
C[C@@H](n1ncnn1)[C@](O)(Cn1cncn1)c1ccc(F)cc1,MIC,Candida albicans [2],100 µg/mL
Clc1ccccc1-n1nnnc1-c1cccnc1,zone of inhibition at 50 µg/mL,Aspergillus fumigatus,15 mm
same,zone of inhibition at 50 µg/mL,Candida albicans [4],17 mm
COc1ccc(-n2nnnc2-c2cccnc2)cc1,zone of inhibition at 50 µg/mL,Aspergillus fumigatus,10 to 19 mm
same,zone of inhibition at 50 µg/mL,Candida albicans [4],10 to 19 mm
Clc1cccc(-n2nnnc2-c2cccnc2)c1Cl,zone of inhibition at 50 µg/mL,Aspergillus fumigatus,18 mm
same,zone of inhibition at 50 µg/mL,Candida albicans [4],16 mm
C[C@@H](n1ncnn1)[C@](O)(Cn1cncn1)c1ccc(Cl)cc1,MIC,Candida albicans [2],100 µg/mL
CN(C)c1ccc(-c2nnnn2-c2nc3ccccc3s2)cc1,zone of inhibition at 250 µg/mL,Aspergillus niger [7],13 to 23 mm
same,zone of inhibition at 250 µg/mL,Candida albicans [8],13 to 23 mm
Clc1ccc(-c2nnn(-c3[se]nnc3-c3ccc(Cl)cc3)n2)cc1,MIC,Candida albicans [5],6.25 µg/mL
same,MIC,Aspergillus niger [6],6.25 µg/mL
Cc1ccc(-c2nnn(-c3[se]nnc3-c3ccc(Cl)cc3)n2)cc1,MIC,Candida albicans [5],100 to 400 µg/mL
same,MIC,Aspergillus niger [6],100 to 400 µg/mL
C[C@@H](n1ncnn1)[C@](O)(Cn1cncn1)c1ccccc1F,MIC,Candida albicans [2],100 µg/mL
O=[N+]([O-])c1ccc(-c2nnnn2-c2nc3ccccc3s2)cc1,zone of inhibition at 250 µg/mL,Aspergillus niger [7],13 to 23 mm
same,zone of inhibition at 250 µg/mL,Candida albicans [8],13 to 23 mm
COc1ccc(-c2nn[se]c2-n2nnc(-c3ccccc3)n2)cc1,MIC,Candida albicans [5],100 to 400 µg/mL
same,MIC,Aspergillus niger [6],100 to 400 µg/mL
C[C@@H](n1cnnn1)[C@](O)(Cn1cncn1)c1ccccc1F,ED50,Candida albicans [1],0.18 to 1.54 mg/kg
same,MIC,Candida albicans [2],12.5 to 100 µg/mL
c1ccc(-c2nnnn2-c2nc3ccccc3s2)cc1,zone of inhibition at 250 µg/mL,Aspergillus niger [7],13 to 23 mm
same,zone of inhibition at 250 µg/mL,Candida albicans [8],13 to 23 mm
Clc1ccc(-c2nn[se]c2-n2nnc(-c3ccccc3)n2)cc1,MIC,Candida albicans [5],100 to 400 µg/mL
same,MIC,Aspergillus niger [6],100 to 400 µg/mL
Oc1ccc(-c2nnnn2-c2nc3ccccc3s2)cc1,zone of inhibition at 250 µg/mL,Aspergillus niger [7],13 to 23 mm
same,zone of inhibition at 250 µg/mL,Candida albicans [8],13 to 23 mm
COc1ccc(-c2nn[se]c2-n2nnc(-c3ccc(Cl)cc3)n2)cc1,MIC,Candida albicans [5],100 to 400 µg/mL
same,MIC,Aspergillus niger [6],100 to 400 µg/mL
Cc1ccc(-n2nnnc2-c2cccnc2)cc1,zone of inhibition at 50 µg/mL,Aspergillus fumigatus,10 to 19 mm
same,zone of inhibition at 50 µg/mL,Candida albicans [4],10 to 19 mm
Clc1ccc(-n2nnnc2-c2cccnc2)cc1,zone of inhibition at 50 µg/mL,Aspergillus fumigatus,10 to 19 mm
same,zone of inhibition at 50 µg/mL,Candida albicans [4],10 to 19 mm
COc1cc(-c2nnnn2-c2nc3ccccc3s2)cc(OC)c1OC,zone of inhibition at 250 µg/mL,Aspergillus niger [7],13 to 23 mm
same,zone of inhibition at 250 µg/mL,Candida albicans [8],13 to 23 mm
Oc1ccc(-c2nnnn2-c2nc3ccccc3s2)cc1O,zone of inhibition at 250 µg/mL,Aspergillus niger [7],13 to 23 mm
same,zone of inhibition at 250 µg/mL,Candida albicans [8],13 to 23 mm
Brc1ccc(-n2nnnc2-c2cccnc2)cc1,zone of inhibition at 50 µg/mL,Aspergillus fumigatus,17 mm
same,zone of inhibition at 50 µg/mL,Candida albicans [4],19 mm
COc1ccccc1-n1nnnc1-c1cccnc1,zone of inhibition at 50 µg/mL,Aspergillus fumigatus,10 to 19 mm
same,zone of inhibition at 50 µg/mL,Candida albicans [4],10 to 19 mm
Cc1ccc(-c2nnnn2-c2nc3ccccc3s2)cc1,zone of inhibition at 250 µg/mL,Aspergillus niger [7],13 to 23 mm
same,zone of inhibition at 250 µg/mL,Candida albicans [8],13 to 23 mm

# — ChEMBL document CHEMBL4393657, “Tetrazole hybrids and their antifungal activities” (2019)
